The text below walks through data of US20100297025A1, “Novel compositions magnetic particles covered with gem-bisphosphonate derivatives” (Guerbet., priority 2002, published 2010).

Assay [1] addresses T1, folate binding protein (FBP) (Bos taurus, UniProt P02702).
T1 construct: purchased Sigma F-0504
Briefly: Affinity for Folate Binding Protein (FBP) by the BiaCore technique. As to conditions: immobilized FBP. The method, then: 1/ Assay for Affinity of Example 17 for Folate Binding Protein (FBP) by the BiaCore Technique
PGM buffer: 100 mM KH2PO4, pH 7, 10% glycerol and 4 mM β-mercaptoethanol.
The immobilization of the FBP was carried out at 1 mg/ml in the PGM buffer according to the protocols recommended by BIAcore for coupling to amines. After this, the remaining active carboxylated groups are saturated with 1M of ethanolamine pH=8. The amount of FBP attached corresponds approximately to 1.5 ng/mm^2.
Example 17 was at a concentration of 0.170 mol/L of iron, which corresponds to 1.9×10^−5 mol of particles/L (considering a crystal of 7.5 nm, i.e. 8900 atoms of iron/particle).
The attachment of the folate was followed at four different concentrations (125, 250, 500 and 1000 μM) whereas that of example 17 was carried out at […] and at 10 nM (expressed as mol of particle/L). The association and the dissociation were studied with a flow at 25 μl/min. The association and dissociation phases are 5 minutes.

The next assay concerns the target T2, human MMP-3 (Homo sapiens, UniProt P08254).
T2 construct: host or cells: sF9 (insect) cell line
The assay can be described thus: Inhibitory effect on human MMP-3 activity, fluorimetry. Format: biochemical. As to conditions: MMP-3, reference product.

In the next assay the target is αvβ5 (Homo sapiens, UniProt P06756+P18084). As to conditions: cited from earlier work.
Another assay has as its target α5β1 (Homo sapiens, UniProt P05556+P08648). As to conditions: cited from earlier work.

T1 sequence (P02702 20-234): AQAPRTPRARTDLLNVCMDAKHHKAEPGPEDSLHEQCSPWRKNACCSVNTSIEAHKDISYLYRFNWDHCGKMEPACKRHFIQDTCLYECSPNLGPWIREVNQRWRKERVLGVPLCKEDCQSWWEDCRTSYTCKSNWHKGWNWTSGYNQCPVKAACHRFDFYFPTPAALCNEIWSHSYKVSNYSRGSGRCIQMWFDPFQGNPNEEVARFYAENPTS
T2 sequence (P08254 100-477): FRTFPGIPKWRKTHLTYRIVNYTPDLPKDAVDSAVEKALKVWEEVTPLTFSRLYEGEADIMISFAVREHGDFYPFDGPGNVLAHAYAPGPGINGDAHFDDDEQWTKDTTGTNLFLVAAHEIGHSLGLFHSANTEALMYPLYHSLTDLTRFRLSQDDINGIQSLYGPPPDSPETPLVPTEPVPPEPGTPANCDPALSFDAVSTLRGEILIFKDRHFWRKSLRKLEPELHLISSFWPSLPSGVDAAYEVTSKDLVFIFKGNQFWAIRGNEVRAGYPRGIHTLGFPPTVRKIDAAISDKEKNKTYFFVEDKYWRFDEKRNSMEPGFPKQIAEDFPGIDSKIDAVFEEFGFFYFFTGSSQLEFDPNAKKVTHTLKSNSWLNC
α5β1, sequence (P08648 42-1049): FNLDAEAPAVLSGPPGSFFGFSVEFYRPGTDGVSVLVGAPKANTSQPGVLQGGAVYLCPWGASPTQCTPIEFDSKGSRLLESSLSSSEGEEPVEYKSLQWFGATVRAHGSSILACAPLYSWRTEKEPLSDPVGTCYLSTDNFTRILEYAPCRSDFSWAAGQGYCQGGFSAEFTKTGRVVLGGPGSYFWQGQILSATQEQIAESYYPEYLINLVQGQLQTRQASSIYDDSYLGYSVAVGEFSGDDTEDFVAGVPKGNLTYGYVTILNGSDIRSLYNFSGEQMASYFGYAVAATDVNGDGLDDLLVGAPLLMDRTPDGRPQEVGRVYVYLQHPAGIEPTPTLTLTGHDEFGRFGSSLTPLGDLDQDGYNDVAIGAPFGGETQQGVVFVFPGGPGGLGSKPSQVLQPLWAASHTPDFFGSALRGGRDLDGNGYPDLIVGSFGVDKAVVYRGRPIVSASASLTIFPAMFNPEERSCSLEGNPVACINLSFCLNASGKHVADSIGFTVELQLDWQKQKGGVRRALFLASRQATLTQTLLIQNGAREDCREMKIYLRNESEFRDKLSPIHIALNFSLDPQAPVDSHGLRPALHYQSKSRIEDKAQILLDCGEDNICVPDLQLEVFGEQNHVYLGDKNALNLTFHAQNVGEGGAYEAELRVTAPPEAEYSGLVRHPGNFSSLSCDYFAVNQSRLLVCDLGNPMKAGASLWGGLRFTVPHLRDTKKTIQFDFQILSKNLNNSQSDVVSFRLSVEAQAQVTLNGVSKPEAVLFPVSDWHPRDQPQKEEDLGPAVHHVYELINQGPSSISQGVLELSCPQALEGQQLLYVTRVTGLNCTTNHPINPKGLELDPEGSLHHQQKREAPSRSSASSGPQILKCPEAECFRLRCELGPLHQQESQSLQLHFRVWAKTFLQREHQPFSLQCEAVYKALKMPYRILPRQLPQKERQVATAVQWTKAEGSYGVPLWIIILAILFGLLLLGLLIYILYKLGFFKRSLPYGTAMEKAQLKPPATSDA
α5β1, sequence (P05556 21-798): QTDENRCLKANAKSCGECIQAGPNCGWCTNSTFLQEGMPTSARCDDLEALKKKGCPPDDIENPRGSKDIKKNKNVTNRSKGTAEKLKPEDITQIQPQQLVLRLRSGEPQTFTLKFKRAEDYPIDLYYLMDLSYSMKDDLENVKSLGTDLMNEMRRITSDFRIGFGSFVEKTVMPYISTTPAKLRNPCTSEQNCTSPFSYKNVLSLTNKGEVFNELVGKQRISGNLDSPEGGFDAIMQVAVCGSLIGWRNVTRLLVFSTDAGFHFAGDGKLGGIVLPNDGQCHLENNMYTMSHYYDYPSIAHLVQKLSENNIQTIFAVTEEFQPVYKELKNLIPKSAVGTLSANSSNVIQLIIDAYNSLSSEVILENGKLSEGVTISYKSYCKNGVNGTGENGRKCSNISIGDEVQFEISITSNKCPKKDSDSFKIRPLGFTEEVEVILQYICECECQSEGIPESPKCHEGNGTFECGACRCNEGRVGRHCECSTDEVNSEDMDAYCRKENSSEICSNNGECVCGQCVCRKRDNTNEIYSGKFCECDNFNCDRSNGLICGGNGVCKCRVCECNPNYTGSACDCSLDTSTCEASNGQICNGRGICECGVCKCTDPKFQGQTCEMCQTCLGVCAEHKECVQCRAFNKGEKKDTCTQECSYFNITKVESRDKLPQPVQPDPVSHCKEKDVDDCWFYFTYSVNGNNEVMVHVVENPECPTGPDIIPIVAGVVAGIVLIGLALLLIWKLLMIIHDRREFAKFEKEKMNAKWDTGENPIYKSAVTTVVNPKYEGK
αvβ5, sequence (P06756 31-1048): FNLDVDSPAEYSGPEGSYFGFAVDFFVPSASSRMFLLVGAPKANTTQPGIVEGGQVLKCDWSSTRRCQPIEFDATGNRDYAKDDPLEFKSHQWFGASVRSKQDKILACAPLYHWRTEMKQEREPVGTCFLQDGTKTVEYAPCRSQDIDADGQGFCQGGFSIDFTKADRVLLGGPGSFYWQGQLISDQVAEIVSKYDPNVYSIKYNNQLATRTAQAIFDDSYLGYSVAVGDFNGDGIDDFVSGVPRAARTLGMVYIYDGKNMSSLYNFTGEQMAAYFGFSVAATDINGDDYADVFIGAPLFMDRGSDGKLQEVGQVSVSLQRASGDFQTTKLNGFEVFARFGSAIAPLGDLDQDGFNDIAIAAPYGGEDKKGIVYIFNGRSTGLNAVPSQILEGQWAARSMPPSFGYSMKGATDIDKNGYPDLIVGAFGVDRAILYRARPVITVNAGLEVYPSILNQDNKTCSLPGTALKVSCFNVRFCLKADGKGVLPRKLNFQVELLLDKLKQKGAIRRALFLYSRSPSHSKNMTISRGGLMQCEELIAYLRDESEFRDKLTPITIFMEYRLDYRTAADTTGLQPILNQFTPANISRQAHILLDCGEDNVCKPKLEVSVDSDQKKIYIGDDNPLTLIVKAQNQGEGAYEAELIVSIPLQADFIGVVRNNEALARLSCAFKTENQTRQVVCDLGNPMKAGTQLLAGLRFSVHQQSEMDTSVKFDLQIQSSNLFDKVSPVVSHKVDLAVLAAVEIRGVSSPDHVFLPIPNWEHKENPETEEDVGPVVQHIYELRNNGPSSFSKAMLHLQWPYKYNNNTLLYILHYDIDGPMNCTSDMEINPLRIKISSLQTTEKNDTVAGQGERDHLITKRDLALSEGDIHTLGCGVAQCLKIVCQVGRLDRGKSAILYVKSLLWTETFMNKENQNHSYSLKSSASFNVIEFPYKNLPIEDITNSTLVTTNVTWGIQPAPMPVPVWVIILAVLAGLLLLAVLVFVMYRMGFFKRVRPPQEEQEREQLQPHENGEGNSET
αvβ5, sequence (P18084 24-799): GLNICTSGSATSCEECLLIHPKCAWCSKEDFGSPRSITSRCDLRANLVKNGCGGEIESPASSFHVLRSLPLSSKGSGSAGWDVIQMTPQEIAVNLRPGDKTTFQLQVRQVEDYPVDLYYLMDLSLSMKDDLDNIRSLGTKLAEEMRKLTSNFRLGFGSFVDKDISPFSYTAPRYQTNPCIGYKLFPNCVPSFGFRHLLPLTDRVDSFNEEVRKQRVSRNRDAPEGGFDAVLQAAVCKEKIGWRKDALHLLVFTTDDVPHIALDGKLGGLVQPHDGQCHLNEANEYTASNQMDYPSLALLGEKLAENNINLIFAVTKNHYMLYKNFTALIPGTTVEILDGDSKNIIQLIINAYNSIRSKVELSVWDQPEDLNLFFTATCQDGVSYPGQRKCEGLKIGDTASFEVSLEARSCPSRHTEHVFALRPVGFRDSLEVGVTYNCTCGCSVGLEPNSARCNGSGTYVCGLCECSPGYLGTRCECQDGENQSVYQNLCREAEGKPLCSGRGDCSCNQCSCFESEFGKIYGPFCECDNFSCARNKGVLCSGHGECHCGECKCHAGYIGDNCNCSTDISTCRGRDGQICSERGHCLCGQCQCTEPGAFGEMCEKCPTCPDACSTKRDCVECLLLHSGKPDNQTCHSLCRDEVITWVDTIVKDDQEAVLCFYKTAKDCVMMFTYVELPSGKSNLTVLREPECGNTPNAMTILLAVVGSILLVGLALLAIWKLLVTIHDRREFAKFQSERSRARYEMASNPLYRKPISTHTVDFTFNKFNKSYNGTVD
Protocol for human MMP-3: More precisely, the test product, or the reference product or water, was added to a buffer solution, at pH=6, containing 6 nM of MMP-3. The fluorescence of this medium was evaluated at λex=340 nm and λem=405 nm by means of a plate reader (GeminiXS, Molecular Devices), after preincubation for 30 min at 37° C. (t=0). This measurement at t=0 serves to verify any possible interference of a product with the fluorescent detection. The enzyme reaction was then initiated by adding 10 μm of the substrate NFF-2. After incubation for 90 min at 37° C., the fluorescence was again evaluated under the same conditions as previously (t=90 min). The enzyme activity was then determined by subtracting the signal measured at t=0 from the signal measured at t=90 min.
The final result is expressed as percentage inhibition of the enzyme activity.

As usually defined, the Kd is the equilibrium constant for the complex coming apart. Consider `Nc1nc2ncc(CNc3ccc(C(=O)N[C@@H](CCC(=O)O)C(=O)O)cc3)nc2c(=O)[nH]1` [Folic acid], for which the kon in assay [1] (flow 25 μl/min, read-out: Association rate ka) is 1000 M⁻¹ s⁻¹. In assay [1] (flow 25 μl/min, read-out: Dissociation rate kd), the koff was found to be 0.0016 s⁻¹. Besides, the equilibrium dissociation constant (Kd) in assay [1] (read-out: Affinity constant KD) is 1600 nM.
What is called IC50 is the concentration that inhibits the measured activity by half. Read a high IC50 as weaker potency in that assay. Turning to `CNC(=O)[C@H](Cc1c[nH]c2ccccc12)NC(=O)[C@@H](CC(=O)NO)CC(C)C` [Ilomastat], half-maximal inhibition on human MMP-3 (IC50) was put at 130 nM.
Regarding cyclo(ARGD-Mamb) [XJ735], the “blocking of other integrins” value on αvβ5 and at α5β1 was “does not block” each time.
